Reference: the METLIN SMRT retention time set (Domingo-Almenara et al. 2019)

Test: gradient 5% acetonitrile 3 min, to 50% in 2 min, to 85% in 15 min, held 3 min, 100 µL/min
Settings: column: Zorbax Extend-C18 2.1 x 50 mm; eluents: water / acetonitrile, 0.1% formic acid
In short: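 The system's dead and dwell volumes were 40 μL and 900 μL, with a Zorbax Extend-C18 column (2.1 × 50 mm, 1.8 μm) run at 100 μL/min in water and acetonitrile containing 0.1% formic acid each. Pure standards were analyzed in mixtures of ~100 molecules by HPLC–quadrupole time-of-flight mass spectrometry in positive and negative ionization mode. Retention time was assigned from computationally picked, manually inspected adduct peaks.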

Row | SMILES | RP-LC retention time [s]
1 | CCS(=O)(=O)NCc1ccc2c(c1)CCN2C(=O)CC(C)C | 794
2 | CC(=O)Nc1nc(-c2ccc3c(c2)NC(=O)C(C)O3)c(C)s1 (stereo not given) | 701
3 | O=C(CN1CC=C(c2cnn(-c3ccccc3)c2)CC1)N1CCC(N2CCCCC2)CC1 | 573
4 | CC1CCN(c2nc(C(=O)N3CCN(C(C)C)CC3)nc3c2cnn3C)CC1 | 604
5 | CCC(C)NC(=O)CCCn1c(=O)c2cccn2c2ccccc21 (stereo not given) | 760
6 | Cc1cc(NC(=O)CSc2ccc(-n3cccn3)nn2)on1 | 666
7 | CCc1nc2cc(N3CCC(C(=O)NCc4cc(F)cc(F)c4)CC3)cnc2nc1CC | 838
8 | Cc1nnc2c(N3CCN(c4ccccn4)CC3)nc3ccc(C(=O)c4ccccc4)cc3n12 | 672
9 | CCN(CC)C(=O)c1ccc2c(c1)N(CC(=O)NC(C)C)C(=O)C1CCCCN21 (stereo not given) | 735
10 | CCOc1ccc(NC(=O)N2CCC(CN3CCCC(C)C3)CC2)cc1 (stereo not given) | 639
11 | CCN(CC)CCNc1ncnc2c1cnn2-c1ccc(C)cc1 | 642
12 | CC(C)n1c(N2CCCN(C(=O)c3cccs3)CC2)cc(=O)n(C(C)C)c1=O | 794
13 | CC1CCCC(NC(=O)c2cc3sc(Cl)cc3n2C)C1C (stereo not given) | 1230
14 | Cc1nn(CC(=O)NCCCN2CCCC2)c(=O)c2cc(-c3ccccc3)nn12 | 587
15 | CCCNC(=O)c1cnn(-c2ccc(SCC)nn2)c1C | 777
16 | O=C(CC1CCN(C(=O)C2CCCCC2)CC1)NCc1ccccn1 | 596
17 | Cc1ccc(F)cc1NS(=O)(=O)c1cc(-c2[nH]ncc2C(=O)N2CCOCC2)oc1C | 704
18 | CC(C)n1cnc(S(=O)(=O)N2CCC(C(=O)Nc3ccc(F)cc3F)CC2)c1 | 728
19 | CC(C)N(CC#CCNC(=O)Cc1ccccc1Cl)C(C)C | 566

Row | SMILES | RP-LC retention time [s]
20 | CC(C)(C)C(=O)N1CCC(C(=O)Nc2nnc(CCCc3ccccc3)s2)CC1 | 893
21 | CCN(CC)C(=O)Cn1nc2c(SCc3ccc(Cl)cc3)nccn2c1=O | 930
22 | Clc1ccccc1-c1csc(Nc2ccccn2)n1 | 960
23 | Cc1noc2nc(CCC(=O)NCCCc3ccccc3)nc(N3CCCC3)c12 | 765
24 | CCC(=O)N1CCc2[nH]nc(C(=O)NCCCc3ccccc3)c2C1 | 709
25 | O=C(CC1CSc2ccccc2NC1=O)NC1CCCCCC1 (stereo not given) | 822
26 | CCCc1noc(-c2ccnc(-n3cnc(C(=O)NC4CCCC4)c3)c2)n1 | 952
27 | CC1CCN(S(=O)(=O)c2ccc(-c3nnc(C(=O)NCCCN4CCCC4=O)o3)cc2)CC1 | 792
28 | CCn1ccnc1N1CCN(CC(=O)Nc2cc(Cl)ccc2OC)CC1 | 552
29 | O=C(Nc1ccc(C(=O)N2CCCCC2)c(N2CCCCCC2)c1)C1CC1 | 866
30 | COC(=O)c1c(C)[nH]c(C(=O)N2CCCC(C(=O)NCc3ccc(Cl)cc3)C2)c1C (stereo not given) | 809
31 | Cc1ccc(NC(=O)C2CCN(S(=O)(=O)c3cc(-c4noc(C5CCC5)n4)cs3)CC2)cc1 | 1020
32 | Cc1noc(-c2nc(-c3ccc(Cl)cc3)no2)n1 | 1070
33 | Cc1oc(C2CCN(S(=O)(=O)c3cccc(C#N)c3)CC2)nc1C(=O)N1CCOCC1 | 734
34 | Cc1nnc(-c2ccc(S(=O)(=O)N3CCN(C4CCCCC4)CC3)o2)o1 | 622
35 | CN(C)CCNC(=O)C1CCN(c2ccc3nnc(-c4ccccc4Cl)n3n2)CC1 | 589
36 | CNC(=O)NCCc1c[nH]c2ncccc12 | 512
37 | Cc1nc2cc(-c3noc(/C=C/c4cccs4)n3)ccc2o1 | 1080
38 | COCC(=O)NC1CCC12CCN(C(=O)C(C)C)CC2 (stereo not given) | 636

Second part, the compound after the results:

Row | RP-LC retention time [s] | SMILES
39 | 1140 | Cc1ccc2nc(-c3ccccc3NC(=O)c3ccc(Br)o3)[nH]c2c1
40 | 1360 | Cc1cccc(Cn2cccc2-c2nc(-c3ccc4c(c3)OCO4)no2)c1
41 | 930 | CN1c2cc(C(=O)Nc3cccc(C(F)(F)F)c3)ccc2C(=O)N2CCCCC21 (stereo not given)
42 | 812 | COc1cccc(Cc2nc(Cn3c(C)nc4ccccc4c3=O)no2)c1
43 | 982 | COc1ccc(C)cc1NC(=O)C(=O)c1ccc[nH]1
44 | 1250 | COc1ccc(OC)c(NS(=O)(=O)c2cc(-c3nc(C(C)(C)C)cs3)cs2)c1
45 | 716 | CCOC(=O)N1CCN(C(=O)CSc2ccc(-c3ccc(OC)cc3)nn2)CC1
46 | 718 | Cc1nc2cc(-c3noc(CNC(=O)c4ccccc4)n3)ccc2n(C)c1=O
47 | 819 | N#Cc1cccc(C(=O)NC2CCCC(OC(=O)Nc3ccccc3)C2)c1 (stereo not given)
48 | 982 | COc1ccc(OC)c(-c2cn3ccn(-c4ccc(C)c(Cl)c4)c(=O)c3n2)c1
49 | 938 | COc1ccc2[nH]cc(CCNC(=O)c3ccccc3NC(=O)C3=C(C)OCCS3)c2c1
50 | 730 | COc1ccc(NS(=O)(=O)c2cc3c4c(c2)CCC(=O)N4CCC3)cc1OC
51 | 1020 | CC(C(=O)NCc1ccccc1F)n1c(=O)c(C(F)(F)F)nc2ccccc21 (stereo not given)
52 | 635 | O=C(Nc1cccnc1)c1ccc(CNS(=O)(=O)c2cccc(C(F)(F)F)c2)cc1
53 | 630 | O=S(=O)(NCCc1c[nH]c2ncccc12)c1ccccc1Br
54 | 640 | COc1cccc(CNC(=O)Cn2nc3cc(-c4ccncc4)nc(C)n3c2=O)c1
55 | 938 | CSc1cccc(NC(=O)CSc2nccc(N3CCN(c4cc(C)ccc4C)CC3)n2)c1
56 | 965 | CCNC(=O)N(CCCOC)CC(=O)N1CCc2sccc2C1COc1ccc(Cl)c(C)c1 (stereo not given)
57 | 705 | Cc1ccc(NC(=O)Cn2c(C(C)C)nc3c(c2=O)CCN(Cc2ccccc2)C3)c(C)c1
58 | 852 | COc1ccc(N2CCN(C(=O)c3ccc(-c4cccs4)nc3)CC2)cc1
59 | 859 | O=C1NC2(CCN(C(=O)c3ccc4ccccc4c3)CC2)N=C1c1ccccc1
60 | 1050 | Cc1ccc(C)c(-c2cc3c4nn(CC(=O)Nc5cc(F)ccc5F)c(=O)n4ccn3n2)c1
61 | 893 | COc1ccccc1C(=O)N1CCc2ccccc2[C@H]1C
62 | 810 | COc1ccc(-n2ccn3cc(-c4ccc(Cl)cc4)nc3c2=O)cc1OC
63 | 1080 | CN(C)c1ccc(-c2nn3c(CSc4ccccc4)nnc3s2)cc1
64 | 973 | COc1cccc(-c2noc(Cc3nnc(-c4ccc(Cl)cc4)o3)n2)c1OC

Row | RP-LC retention time [s] | SMILES
65 | 753 | CCc1ccc(CNC(=O)CCc2c(-c3ccc(Br)cc3)nc3ccccn23)cc1
66 | 649 | Cc1cc(N2CCN(c3ccccn3)CC2)n2nc(-c3ccc(Cl)cc3)c(C)c2n1
67 | 662 | CCn1c(=O)c2ccnn2c2ccc(C(=O)O)cc21
68 | 984 | CCCCN1C(=O)C(C)(C(=O)NCc2ccc(F)cc2)Oc2cccnc21 (stereo not given)
69 | 746 | CCCNC(=O)CCc1nc2ccccc2n(CC(=O)Nc2ccc(OC)cc2)c1=O
70 | 966 | COc1ccc(-n2c(=O)n(C)c(=O)c3cc(C(=O)Nc4ccc(Cl)cc4)cnc32)cc1
71 | 666 | CCOc1cc(S(=O)(=O)NCc2ccccn2)ccc1Br
72 | 656 | Cc1nn2c(CNC(=O)c3ccc(Br)cc3)c(C)nc2s1
73 | 970 | COc1ccc(C2CC(=O)N(c3cccc(Br)c3)C(=O)C2)cc1
74 | 798 | Cn1nccc1-c1cccc(-c2noc(CNC(=O)c3ccccc3)n2)c1
75 | 968 | O=C(Cn1cccc1-c1nnc(C2CCC2)o1)Nc1ccc(Cl)cc1
76 | 898 | O=C(Cn1ccc2ccc(N3CCOCC3)nc21)N1CCN(c2ccc(F)cc2)CC1
77 | 755 | CCC(C(=O)Nc1cc(-c2nc3ccccc3[nH]2)ccc1C)c1ccccc1 (stereo not given)
78 | 659 | CCCN(Cc1ccc(F)cc1)Cc1cc(=O)n2cc(Cl)ccc2n1
79 | 553 | CCN(CC)C(=O)N1CCC(c2noc(COc3ccc(F)cc3)n2)C1 (stereo not given)
80 | 898 | O=C(NCc1ccccn1)c1cc(-c2cccnc2)nc2ccc(Br)cc12
81 | 658 | Cc1ccc(CN2C(=O)COC[C@H]2C(=O)NC2CC2)cc1
82 | 1060 | CC(C)Cn1cc(CCNS(=O)(=O)c2ccc(Cl)c(Cl)c2)c2cccnc21
83 | 973 | CCOc1cccc(-c2noc(Cn3ccn(Cc4ccc(Cl)cc4)c(=O)c3=O)n2)c1
84 | 912 | O=C(Nc1ccccc1)c1cc(C2CC2)on1
85 | 1240 | CCOc1nc2ccccc2nc1N1CCCC(C(=O)Nc2ccc(C(C)C)cc2)C1 (stereo not given)
86 | 1280 | Cc1ccc(-c2noc(-c3ccc(N4CCN(c5ncccn5)CC4)nc3)n2)cc1
87 | 1190 | Cc1cccc(Nc2nc(-c3ccc([N+](=O)[O-])cc3)cs2)c1
88 | 828 | Cc1cc(=O)n(CC(=O)Nc2ccc(F)cc2)c(N2CCN(c3ccccc3)CC2)n1
89 | 775 | CCNC(=O)CCc1nc2ccccc2n(CC(=O)Nc2ccc(OCC)cc2)c1=O
90 | 932 | CC(CCc1ccccc1)NC(=O)Cn1c(=O)n(C(C)C)c2ccc(S(=O)(=O)N3CCCC3)cc21 (stereo not given)
